Patent US20060178311A1, “Control of lactation” (Hannah Research Institute, priority 2003, published 2006)
Ends that are not written are not given here.

Test system: mammary acini from tissue of lactating mice
Assay: Mammary acini culture bioassay: secretion of [3H]leucine-labelled protein
Type: cell-based, mouse
Conditions: 0.01-10.0 μM, singly or in combination, 2 hours
Protocol: Mammary cells were prepared from tissue of lactating mice by collagenase digestion according to the method of K Hendry, K Simpson, K Nicholas & C Wilde. Journal of Molecular Endocrinology 21: 169-177 (1998). The resultant suspension of mammary acini consisted predominantly of groups of 50-200 cells, and was cultured in medium (Medium 199/Ham's F12: 50:50 v/v) containing insulin (5 μg/ml), hydrocortisone (0.1 μg/ml) and prolactin (1 μg/ml). Culture density was 1.5×10^6 cells/ml, and cells were maintained at 37° C. in an atmosphere of 5% CO2 in air. Protein synthesis and secretion were measured by continuous labelling with L-[4.5-3H]leucine ([…]; 10-20 μCi/ml) for 2 hours in the presence or absence of milk fractions (at concentrations of 0.2-4.0 μg/ml) or synthetic peptides (0.01-10 μM). […] Radiolabel incorporation was measured by precipitation with trichloroacetic acid (final concentration 10% w/v). […]
The amount of radiolabelled protein secreted by acini in the presence of milk extracts or synthetic peptides was expressed as a percentage of that produced by the cells to which no milk fraction or peptide was added. […]
Protein secretion was measured in mammary acini cultures in the presence and absence of synthetic peptides. […]

Sequence	effect of synthetic peptides on protein secretion
AVAVSQEAN (also: C-terminal cysteine) [Peptide B, nine amino acid synthetic peptide]	stimulatory effect
RPKHPIKHQG [Peptide A]	inhibitory action
